Drawing on patent US10961238B2, “Modulators of hedgehog (Hh) signaling pathway” (E-THERAPEUTICS PLC, priority 2016, dated 2021), this text covers IC50 for 36 compounds.

For this assay, the system named is C3H10T1/2 cells. Description: C3H assay: differentiation of C3H10T1/2 cells by mSHH, measurement of alkaline phosphatase. The format is cell-based, mouse. The following applies: Mus musculus, C3H 10T1/2; C3H10T1/2 cells stimulated with mSHH for 72 hours; alkaline phosphatase activity; read-out: IC50 Ranges.

As to `CN(C)S(=O)(=O)N1CC(S(=O)(=O)N2CCC(c3c[nH]c4ncccc34)CC2)C1` [Compound 90, N,N-dimethyl-3-[4-(1H-pyrrolo[2,3-b]pyridin-3-yl)piperidin-1-yl]sulfonylaze-tidine-1-sulfonamide], the IC50 is 0.1 to 1 µM.

For the compound `CS(=O)(=O)N1CC(S(=O)(=O)N2CCC(c3c[nH]c4ncccc34)CC2)C1` [Compound 91, 3-[1-(1-Methylsulfonylazetidin-3-yl)sulfonyl-4-piperidyl]-1H-pyrrolo[2,3-b]pyridine], the IC50 is 0.1 to 1 µM.

On to `CN(C)S(=O)(=O)n1cc(C2CCN(S(=O)(=O)C3CN(C(=O)OC(C)(C)C)C3)CC2)c2cccnc21` [Compound 92, tert-butyl 3-[4-[1-(dimethylsulfamoyl)pyrrolo[2,3-b]pyridin-3-yl]piperidin-1-yl]sulfonylaze-tidine-1-carboxylate], for which the IC50 lay within 1 to 10 µM. As for `CC(C)(C)OC(=O)N1CC(S(=O)(=O)N2CCC(c3cn(S(C)(=O)=O)c4ncccc34)CC2)C1` [Compound 93, tert-Butyl 3-[[4-(1-methylsulfonylpyrrolo[2,3-b]pyridin-3-yl)-1-piperidyl]sulfonyl]azetidine-1-carboxylate], the IC50 was in the range of 1 to 10 µM. In the case of `Cn1cc(C2CCN(S(=O)(=O)C3CN(C(=O)OC(C)(C)C)C3)CC2)c2cccnc21` [Compound 94, tert-Butyl 3-[[4-(1-methylpyrrolo[2,3-b]pyridin-3-yl)-1-piperidyl]sulfonyl]azetidine-1-carboxylate], the IC50 was in the range of 0.1 to 1 µM. Regarding `Cc1nn(C)c(C)c1CNC(=O)N1CC(S(=O)(=O)N2CCC(c3c[nH]c4ncccc34)CC2)C1` [Compound 95, 3-[4-(1H-pyrrolo[2,3-b]pyridin-3-yl)piperidin-1-yl]sulfonyl-N-[(1,3,5-trimethylpyrazol-4-yl)methyl]azetidine-1-carboxamide], the 50% inhibitory concentration (IC50) was 0.1 to 1 µM.

For `O=C(Nc1cccnc1)N1CC(S(=O)(=O)N2CCC(c3c[nH]c4ncccc34)CC2)C1` [Compound 96, N-pyridin-3-yl-3-[4-(1H-pyrrolo[2,3-b]pyridin-3-yl)piperidin-1-yl]sulfonylaze-tidine-1-carboxamide], the IC50 lay within 0.01 to 0.1 µM. Take `CC(C)NC(=O)N1CC(S(=O)(=O)N2CCC(c3c[nH]c4ncccc34)CC2)C1` [Compound 98, N-propan-2-yl-3-[4-(1H-pyrrolo[2,3-b]pyridin-3-yl)piperidin-1-yl]sulfonylaze-tidine-1-carboxamide]: the IC50 is 0.1 to 1 µM. For the compound `O=C(NCc1ccco1)N1CC(S(=O)(=O)N2CCC(c3c[nH]c4ncccc34)CC2)C1` [Compound 99, N-(furan-2-ylmethyl)-3-[4-(1H-pyrrolo[2,3-b]pyridin-3-yl)piperidin-1-yl]sulfonylaze-tidine-1-carboxamide], the IC50 fell in the range of 0.1 to 1 µM.

In the case of `CC(C)(C)OC(=O)N1CC(S(=O)(=O)N2CCC(c3cnc4ccccn34)CC2)C1` [Compound 100, tert-butyl 3-(4-imidazo[1,2-a]pyridin-3-ylpiperidin-1-yl)sulfonylaze-tidine-1-carboxylate], the IC50 lay within 0.1 to 1 µM. With `CC(C)(C)OC(=O)N1CC(S(=O)(=O)N2CCC(c3cnc4n3CCCC4)CC2)C1` [Compound 101, tert-butyl 3-[4-(5,6,7,8-tetrahydroimidazo [1,2-a]pyridin-3-yl)piperidin-1-yl]sulfonylaze-tidine-1-carboxylate], the IC50 is 1 to 10 µM.

As to `Cn1cncc1C1CCN(S(=O)(=O)C2CN(C(=O)OC(C)(C)C)C2)CC1` [Compound 102, tert-butyl 3-[4-(3-methylimidazol-4-yl)piperidin-1-yl]sulfonylaze-tidine-1-carboxylate], the IC50 lay within 1 to 10 µM. As for `CCOC(=O)N1CCC(S(=O)(=O)N2CCC(c3ccncc3)CC2)CC1` [Compound 103, ethyl 4-(4-pyridin-4-ylpiperidin-1-yl)sulfonylpiper-idine-1-carboxylate], the IC50 was in the range of 1 to 10 µM. In the case of `O=C(NC1CCC1)N1CCC(S(=O)(=O)N2CCC(c3ccncc3)CC2)CC1` [Compound 104, N-cyclobutyl-4-(4-pyridin-4-ylpiperidin-1-yl)sulfonylpiper-idine-1-carboxamide], the IC50 lay within 1 to 10 µM. Consider `CC(C)OC(=O)N1CCC(S(=O)(=O)N2CCC(c3ccncc3)CC2)CC1` [Compound 105, propan-2-yl 4-(4-pyridin-4-ylpiperidin-1-yl)sulfonylpiper-idine-1-carboxylate], for which the IC50 fell in the range of 1 to 10 µM. With `COC(=O)N1CCC(S(=O)(=O)N2CCC(c3ccncc3)CC2)CC1` [Compound 106, methyl 4-(4-pyridin-4-ylpiperidin-1-yl)sulfonylpiper-idine-1-carboxylate], the concentration for half-maximal inhibition (IC50) is 1 to 10 µM.

In the case of `CC(C)(C)NC(=O)N1CC(S(=O)(=O)N2CCC(c3c[nH]c4ncccc34)CC2)C1` [Compound 108, N-tert-butyl-3-[4-(1H-pyrrolo[2,3-b]pyridin-3-yl)piperidin-1-yl]sulfonylaze-tidine-1-carboxamide], the IC50 was in the range of 0.01 to 0.1 µM. In the case of `CC(C)(C)OC(=O)N1CC(S(=O)(=O)N2CCC(c3c[nH]c4ncccc34)CC2)C1` [Compound 110, tert-butyl 3-[4-(1H-pyrrolo[2,3-b]pyridin-3-yl)piperidin-1-yl]sulfonylaze-tidine-1-carboxylate], the half-maximal inhibitory concentration (IC50) lay within 0.01 to 0.1 µM.

Regarding `CC(C)(C)NC(=O)N1CCC(S(=O)(=O)N2CCC(c3ccncc3)CC2)CC1` [Compound 111, N-tert-butyl-4-(4-pyridin-4-ylpiperidin-1-yl)sulfonylpiper-idine-1-carboxamide], the 50% inhibitory concentration (IC50) was 0.1 to 1 µM.

On to `O=S(=O)(C1CCN(c2ccccc2)CC1)N1CCC(c2ccncc2)CC1` [Compound 113, 4-[1-[(1-Phenyl-4-piperidyl)sulfonyl]-4-piperidyl]pyridine], for which the IC50 lay in the range of 1 to 10 µM. For the compound `O=C(Oc1ccccc1)N1CCC(S(=O)(=O)N2CCC(c3ccncc3)CC2)CC1` [Compound 114, phenyl 4-(4-pyridin-4-ylpiperidin-1-yl)sulfonylpiper-idine-1-carboxylate], the IC50 lay in the range of 1 to 10 µM.

For the compound `CC(C)(C)OC(=O)N1CCC(S(=O)(=O)N2CCC(c3c[nH]c4ncc(C(F)(F)F)cc34)CC2)CC1` [Compound 116], the IC50 fell in the range of 0.1 to 1 µM.

Consider `Cn1cc(-c2cnc3[nH]cc(C4CCN(S(=O)(=O)C5CCN(C(=O)OC(C)(C)C)CC5)CC4)c3c2)cn1` [Compound 117, tert-butyl 4-[4-[5-(1-methylpyrazol-4-yl)-1H-pyrrolo [2,3-b]pyridin-3-yl]piperidin-1-yl]sulfonylpiper-idine-1-carboxylate], for which the IC50 fell in the range of 1 to 10 µM.

Consider `O=S(=O)(C1CN(c2ccccn2)C1)N1CCC(c2c[nH]c3ncccc23)CC1` [Compound 118, 3-[1-[1-(2-Pyridyl)azetidin-3-yl]sulfonyl-4-piperidyl]-1H-pyrrolo[2,3-b]pyridine], for which the IC50 was in the range of 0.01 to 0.1 µM. Turning to `CC(C)N(C)C(=O)N1CC(S(=O)(=O)N2CCC(c3c[nH]c4ncccc34)CC2)C1` [Compound 119, N-methyl-N-propan-2-yl-3-[4-(1H-pyrrolo [2,3-b]pyridin-3-yl)piperidin-1-yl]sulfonylaze-tidine-1-carboxamide], the IC50 was 0.01 to 0.1 µM. Take `CC(C)(C)OC(=O)N1CC(S(=O)(=O)N2CCC(c3c[nH]c4ncc(C(F)(F)F)cc34)CC2)C1` [Compound 121, tert-butyl 3-[4-[5-(trifluoromethyl)-1H-pyrrolo[2,3-b]pyridin-3-yl]piperidin-1-yl]sulfonylaze-tidine-1-carboxylate]: the IC50 lay within 1 to 10 µM. On to `COc1cnc2[nH]cc(C3CCN(S(=O)(=O)C4CN(C(=O)OC(C)(C)C)C4)CC3)c2c1` [Compound 123, tert-butyl 3-[4-(5-methoxy-1H-pyrrolo[2,3-b]pyridin-3-yl)piperidin-1-yl]sulfonylaze-tidine-1-carboxylate], for which the concentration for half-maximal inhibition (IC50) lay in the range of 0.1 to 1 µM. Turning to `CC(C)(C)OC(=O)N1CC(S(=O)(=O)N2CCC(c3c[nH]c4ccccc34)CC2)C1` [Compound 125, tert-butyl 3-[4-(1H-indol-3-yl)piperidin-1-yl]sulfonylaze-tidine-1-carboxylate], the IC50 lay within 0.01 to 0.1 µM. Turning to `COC(=O)N1CC(S(=O)(=O)N2CCC(c3coc4cccnc34)CC2)C1` [Compound 126, methyl 3-(4-furo [3,2-b]pyridin-3-ylpiperidin-1-yl)sulfonylaze-tidine-1-carboxylate], the IC50 is 0.1 to 1 µM.

With `CC(C)(C)OC(=O)N1CC(S(=O)(=O)N2CCC(C3COc4cccnc43)CC2)C1` (stereo not drawn) [Compound 127, tert-butyl 3-[4-(2,3-dihydrofuro[3,2-b]pyridin-3-yl)piperidin-1-yl]sulfonylaze-tidine-1-carboxylate], the IC50 fell in the range of 0.1 to 1 µM. With `CC(C)(C)OC(=O)N1CC(S(=O)(=O)N2CCC(c3c[nH]c4nccnc34)CC2)C1` [Compound 128, tert-Butyl 3-[[4-(5H-pyrrolo[2,3-b]pyrazin-7-yl)-1-piperidyl]sulfonyl] azetidine-1-carboxylate], the half-inhibitory concentration (IC50) lay in the range of 0.01 to 0.1 µM.

Consider `Cc1ccc(S(=O)(=O)n2cc(C3CCN(S(=O)(=O)C4CN(C(=O)OC(C)(C)C)C4)CC3)c3nccnc32)cc1` [Compound 129, tert-butyl 3-[4-[5-(4-methylphenyl)-sulfonylpyrrolo[2,3-b]pyrazin-7-yl]piperidin-1-yl]sulfonylaze-tidine-1-carboxylate], for which the half-inhibitory concentration (IC50) fell in the range of 1 to 10 µM. The value for `CC(C)(C)OC(=O)N1CC(S(=O)(=O)N2CCC(c3cnn4ccncc34)CC2)C1` [Compound 130, tert-butyl 3-(4-pyrazolo[1,5-a]pyrazin-3-ylpiperidin-1-yl)sulfonylaze-tidine-1-carboxylate] was 1 to 10 µM. As to `CC(C)(C)OC(=O)N1CCC(S(=O)(=O)N2CCC(c3coc4cccnc34)CC2)CC1` [Compound 132, tert-butyl 4-(4-furo[3,2-b]pyridin-3-ylpiperidin-1-yl)sulfonylpiper-idine-1-carboxylate], the IC50 lay within 0.1 to 1 µM. Consider `CC(C)(C)OC(=O)N1CCC(S(=O)(=O)N2CCC(c3c[nH]c4ccccc34)CC2)CC1` [Compound 133, tert-butyl 4-[4-(1H-indol-3-yl)piperidin-1-yl]sulfonylpiper-idine-1-carboxylate], for which the IC50 lay within 0.1 to 1 µM. As for `Cc1noc(C)c1CCN1CC(S(=O)(=O)N2CCC(c3coc4cccnc34)CC2)C1` [Compound 134, 3-[1-[1-[2-(3,5-dimethyl-1,2-oxazol-4-yl)ethyl]azetidin-3-yl]sulfonylpiper-idin-4-yl]furo [3,2-b]pyridine], the IC50 was 0.1 to 1 µM.

For orientation: IC50 means the concentration that gives 50% inhibition.
